Assay [1] in a line: changing rate of blood pressure and heart rate by intravenous injection in anesthetized rats. It is filed as in vivo, Wister male rats. The settings on record: for change in vivo at 1 mg/kg: Rattus norvegicus; for changing rate (%) of blood pressure / changing rate (%) of heart rate: Table 2. The method, then:
(blood pressure, heart rate increasing action by intravenous injection) Wister male rats (8 weeks old) were used as test animals. The rats were applied to anesthesia by intraperitoneal administration with 1.25 g/kg of urethane. The blood pressure was determined by inserting a polyethylene tube into a femoral artery, which was connected with a pressure transducer. The heart rate was determined from R wave of electrocardiograms (ECG) induced by standard limb lead II with a tachometer. Each test compound was dissolved in ethanol and intravenously administered to rats in 1 mg/kg diluted with Ringer's solution just before use. The maximum concentration of ethanol was 2 percent. An ethanol-containing Ringer without any test compound was used as a control to confirm the influence of the ethanol in each experiment. Each changing rate (%) in the blood pressure and heart rate before and after administration was determined, and the average of 3-4 experiments was shown in Table 1. Changing rates of blood pressure and heart rate were determined in the same manner as described in Example 1 except that the test compounds 60, 61 and 62 were used in different concentrations instead of the test compounds 1-55.

Assay [2] in a line: progressing a breath (change rate of breath rate). The class given is in vivo, Wister male rats. The settings on record: tail vein, rats; for change in vivo at 1 mg/kg: Rattus norvegicus, iv. Here is the method:
Wister male rats (8 weeks old) were applied to anesthesia by intraperitoneal administration with 1.25 g/kg of urethane. A pick-up for breath was fixed on a top of a rat's nose, and the breath curve was recorded on a polygraph while the breath rate was counted with a tachometer.
Each test compound was dissolved in ethanol and administered to rats through a tale vein in 1 mg/kg as diluted with Ringer's solution just before use. The maximum concentration of ethanol was 2 percent. Ringers solution containing ethanol but not containing test compound was administered at every experiment as a control. The change rates (%) of the breath rate before and after administration were determined, and evaluated as progressing activity of breath.

[3] abbreviates: 1 (mg/kg), Table 1, read-out: changing rate of blood pressure.
[4] abbreviates: 1 (mg/kg), Table 1, read-out: changing rate of heart rate.

As to `CCCCC(O)C(=O)CC[C@H]1[C@H](O)CC(=O)[C@@H]1C/C=C\CCCC(=O)OCC` (some centres unmarked) [Compound 35, 13,14-dihydro-15-keto-16R,S-hydroxy-PGE2 ethyl ester], the change in vivo at 1 mg/kg in assay [1] (setting [3]) worked out at 17%; in assay [1] (setting [4]), 27%; in assay [2], 37%.

Consider `CCCCC(C)C(=O)CC[C@H]1[C@H](O)CC(=O)[C@@H]1C/C=C\CCCC(=O)OC` (some centres unmarked) [Compound 30, 13,14-dihydro-15-keto-16R,S-methyl-PGE2 methyl ester], for which the results for the change in vivo at 1 mg/kg in assay [1] (setting [3]), in assay [1] (setting [4]) and in assay [2] were 14%, 29% and 61%, respectively.

Take `CCCCC(C)C(=O)CC[C@H]1[C@H](O)CC(=O)[C@@H]1CC(=O)CCCCC(=O)OCC` (some centres unmarked) [Compound 11, 13,14-dihydro-6,15-diketo-16R,S-methyl-PGE1 ethyl ester]: the values for the change in vivo at 1 mg/kg in assay [1] (setting [3]), in assay [1] (setting [4]) and in assay [2] were 23%, 18% and 34%, respectively.

Consider `CCCCCC(F)C(=O)CC[C@H]1[C@H](O)CC(=O)[C@@H]1C/C=C\CCCC(=O)OC` (some centres unmarked) [Compound 39, 13,14-dihydro-15-keto-16R,S-fluoro-20-methylPGE2 methyl ester], for which the change in vivo at 1 mg/kg in assay [1] (setting [3]) worked out at 20%; in assay [1] (setting [4]), 47%.

With `COCCCCCC(=O)CC[C@H]1[C@H](O)CC(=O)[C@@H]1C/C=C\CC(C)CC(=O)OC` (some centres unmarked) [Compound 47, 13,14-dihydro-15-keto-3R,S-methyl-20-methoxy-PGE2 methyl ester], the change in vivo at 1 mg/kg in assay [1] (setting [3]) came to 1%; in assay [1] (setting [4]) it was 4%; in assay [2], 17%.

Regarding `CCCCC(C)(C)C(=O)CC[C@H]1[C@H](O)CC(=O)[C@@H]1C/C=C\CCCC(=O)OCC` [Compound 34, 13,14-dihydro-15-keto-16,16-dimethyl-PGE2 ethyl ester], the change in vivo at 1 mg/kg worked out at 6% in assay [1] (setting [3]), 29% in assay [1] (setting [4]) and 31% in assay [2].

On to `CCCCCCCC(=O)CC[C@H]1[C@H](O)CC(=O)[C@@H]1C/C=C\CCCC(=O)OC` [Compound 51, 13,14-dihydro-15-keto-20-ethyl-PGE2 methyl ester], for which the change in vivo at 1 mg/kg was found to be 1% in assay [1] (setting [3]), 14% in assay [1] (setting [4]) and 49% in assay [2].

Consider `CC(C)=CCCCCC(=O)CC[C@H]1[C@H](O)CC(=O)[C@@H]1C/C=C\CCCC(=O)O` [Compound 49, 13,14-dihydro-15-keto-20-isopropylidene-PGE2], for which the change in vivo at 1 mg/kg in assay [1] (setting [3]) amounted to 2%; in assay [1] (setting [4]) it was 3%; in assay [2], 18%.

As to `CCCCCC(=O)CC[C@H]1[C@H](O)CC(=O)[C@@H]1CC(=O)CCCCC(=O)OC` [Compound 6, 13,14-dihydro-6,15-diketo-PGE1 methyl ester], the values for the change in vivo at 1 mg/kg in assay [1] (setting [3]), in assay [1] (setting [4]) and in assay [2] were 3%, 9% and 21%, respectively.

For the compound `CCCCCC(=O)CC[C@H]1[C@H](O)CC(=O)[C@@H]1C/C=C\CCCC(=O)OCCO` [Compound 26, 13,14-dihydro-15-keto-PGE2 hydroxyethyl ester], the “changing rate of blood pressure” value was 0% in assay [1] (0.2, Table 1); 0% in assay [1] (0.5, Table 1); “+2%” in assay [1] (1 (mg/kg), Table 1). The “changing rate of heart rate” value in assay [1] (0.2, Table 1) is 0%; in assay [1] (0.5, Table 1) it was 0%; in assay [1] (1 (mg/kg), Table 1), “+7%”. Further, in assay [2] (1 mg/kg), the “progressing activity % of breath” value was “+22%”.

Consider `COC(=O)CCCCC(=O)C[C@H]1C(=O)C[C@@H](O)[C@@H]1CCC(=O)CCCC(C)C` [Compound 14, 13,14-dihydro-6,15-diketo-19-methyl-PGE1 methyl ester], for which the change in vivo at 1 mg/kg worked out at 12% in assay [1] (setting [3]), 22% in assay [1] (setting [4]) and 33% in assay [2].

Regarding `CCCCC(C)C(=O)CC[C@H]1[C@H](O)CC(=O)[C@@H]1C/C=C\CCCC(=O)OCC` (some centres unmarked) [Compound 31, 13,14-dihydro-15-keto-16R,S-methyl-PGE2 ethyl ester], the change in vivo at 1 mg/kg in assay [1] (setting [3]) stood at 14%; in assay [1] (setting [4]) it was 46%; in assay [2] it was 40%.

As for `CCCCCC(=O)CC[C@H]1[C@H](O)CC(=O)[C@@H]1C/C=C\CC=CC(=O)OC` [Compound 27, 13,14-dihydro-15-keto-Δ^2 -PGE2-methyl ester], the change in vivo at 1 mg/kg in assay [1] (setting [3]) was found to be 6%; in assay [1] (setting [4]), 21%; in assay [2] it was 11%.

Regarding `CCCCCC(=O)CC[C@H]1[C@H](O)CC(=O)[C@@H]1CCCCCCC(=O)O` [Compound 1, 13,14-dihydro-15-keto-PGE1, reference compound], the change in vivo at 1 mg/kg was -6% in assay [1] (setting [3]), 6% in assay [1] (setting [4]) and 34% in assay [2].

As for `COC(=O)CCCCC(=O)C[C@H]1C(=O)C[C@@H](CO)[C@@H]1CCC(=O)CCCC(C)C` [Compound 16, 13,14-dihydro-6,15-diketo-11-dehydroxy-11R-hydroxymethyl-19-methyl-PGE1 methyl ester], the figures for the change in vivo at 1 mg/kg in assay [1] (setting [3]) and in assay [1] (setting [4]) were 26% and 25%, respectively.

For `CCCCCC(=O)CC[C@H]1[C@H](O)CC(=O)[C@@H]1CCCCC=CC(=O)OC` [Compound 3, 13,14-dihydro-15-keto-Δ^2 -PGE1 methyl ester], the values for the change in vivo at 1 mg/kg in assay [1] (setting [3]) and in assay [1] (setting [4]) were 32% and 43%, respectively.

Turning to `CCCCC(F)C(=O)CC[C@H]1[C@H](C)CC(=O)[C@@H]1CC(=O)CCCCC(=O)OCC` (stereo partly drawn) [Compound 19, 13,14-dihydro-6,15-diketo-16R,S-fluoro-11R-dehydroxy-11R-methyl-PGE1 ethyl ester], the change in vivo at 1 mg/kg in assay [1] (setting [3]) turned out to be 45%; in assay [1] (setting [4]) it was 51%.

In the case of `CCCCCCCC(=O)CC[C@H]1[C@H](O)CC(=O)[C@@H]1C/C=C\CCCC(=O)OCC` [Compound 52, 13,14-dihydro-15-keto-20-ethyl-PGE2 ethyl ester], the change in vivo at 1 mg/kg in assay [1] (setting [3]) was determined as 13%; in assay [1] (setting [4]) it was 0%.

For `CCCCCCCCC(=O)CC[C@H]1[C@H](O)CC(=O)[C@@H]1C/C=C\CCCC(=O)OC` [Compound 54, 13,14-dihydro-15-keto-20-n-propyl-PGE2 methyl ester], the change in vivo at 1 mg/kg in assay [1] (setting [3]) and in assay [1] (setting [4]) was 18% throughout.

On to `CCCCCCC(=O)CC[C@H]1[C@H](O)CC(=O)[C@@H]1CCCCCCC(=O)OC` [Compound 60, 13,14-dihydro-15-keto-20-methyl-PGE1 methyl ester], for which, in assay [1] (0.1 mg/kg), the “changing rate (%) of blood pressure” value is on record as “+17%” and the “changing rate (%) of heart rate” value was “+14%”. Besides, in assay [1] (1 mg/kg), the “changing rate (%) of blood pressure” value is “+13%” and the “changing rate (%) of heart rate” value is listed as “+38%”.

As to `CCOC(=O)CCCCC(=O)C[C@H]1C(=O)C[C@@H](O)[C@@H]1CCC(=O)CCC(C)CC` (some centres unmarked) [Compound 62, 13,14-dihydro-6,15-diketo-18-methyl-PGE1 ethyl ester], the “changing rate (%) of heart rate” value in assay [1] (0.1 mg/kg) is “+6%”; in assay [1] (1 mg/kg), “+13%”.

With `CCCCC[C@H](O)/C=C/[C@H]1[C@H](O)CC(=O)[C@@H]1CCCCCCC(=O)O` [Compound 56, PGE1, reference compound], the change in vivo at 1 mg/kg in assay [1] (setting [3]) is -54%; in assay [1] (setting [4]) it was 10%.

Turning to `CCCCC(F)(F)C(=O)CC[C@H]1[C@H](O)CC(=O)[C@@H]1C/C=C\CCCC(=O)OC` [Compound 61, 13,14-dihydro-15-keto-16,16-difluoro-PGE2 methyl ester], the results for the “changing rate (%) of blood pressure” value in assay [1] (0.01 mg/kg), in assay [1] (0.1 mg/kg) and in assay [1] (1 mg/kg) were “+13%”, “+15%” and “+27%”, respectively. For the same compound, the “changing rate (%) of heart rate” value was “+14%” in assay [1] (0.01 mg/kg), “+30%” in assay [1] (0.1 mg/kg) and “+26%” in assay [1] (1 mg/kg).

As for `CCCCC(F)C(=O)/C=C/[C@H]1[C@H](O)CC(=O)[C@@H]1C/C=C\CCCC(=O)OC` (some centres unmarked) [Compound 55, 15-keto-16R,S-fluoro-PGE2 methyl ester], the change in vivo at 1 mg/kg was determined as 31% in assay [1] (setting [3]) and 58% in assay [1] (setting [4]).

As to `CCCCCC(=O)CC[C@H]1[C@H](C)CC(=O)[C@@H]1CC(=O)CCCCC(=O)OC` [Compound 17, 13,14-dihydro-6,15-diketo-11-dehydroxy-11R-methyl-PGE1 methyl ester], the change in vivo at 1 mg/kg in assay [1] (setting [3]) was 46%; in assay [1] (setting [4]) it was 58%.

In the case of `COCCCCC(C)(C)C(=O)CC[C@H]1[C@H](O)CC(=O)[C@@H]1C/C=C\CCCC(=O)OC` [Compound 48, 13,14-dihydro-15-keto-16,16-dimethyl-20-methoxy-PGE2 methyl ester], the values for the change in vivo at 1 mg/kg in assay [1] (setting [3]) and in assay [1] (setting [4]) were 15% and 30%, respectively.

For `CCCCCCCC(=O)CC[C@H]1[C@H](C)CC(=O)[C@@H]1C/C=C\CCCC(=O)OC` [Compound 53, 13,14-dihydro-15-keto-20-ethyl-11-dehydroxy-11R-methyl-PGE2 methyl ester], the values for the change in vivo at 1 mg/kg in assay [1] (setting [3]) and in assay [1] (setting [4]) were 17% and 20%, respectively.

Values taken from patent publication US5169863A, “Hypersphyxia-causing methods” (K.K. Ueno Seiyaku Oyo Kenkyujo, priority 1988, dated 1992).
